Experimental data published in BigSolDB 2.1.

COC(=O)c1c(Cl)nn(C)c1S(=O)(=O)NC(=O)Nc1nc(OC)cc(OC)n1
solubility (mole fraction)
Details	278.15 K	283.15 K	288.15 K	293.15 K	298.15 K	303.15 K	308.15 K	313.15 K	318.15 K	323.15 K
in DMF	0.000768	0.000905	0.00105	0.00123	0.00142	0.0016	0.00182	0.00204	0.00227	0.00254
in ethanol	3.56e-05	4.18e-05	4.87e-05	5.64e-05	6.48e-05	7.29e-05	8.22e-05	9.25e-05	0.000103	0.000116
in isopropanol	3.3e-06	3.57e-06	3.85e-06	4.17e-06	4.51e-06	4.93e-06	5.33e-06	5.71e-06	6.19e-06	6.64e-06
in water	3.24e-07	3.38e-07	3.51e-07	3.66e-07	3.81e-07	3.96e-07	4.11e-07	4.26e-07	4.44e-07	4.62e-07
